1 molecule from patent US7786117B2, “Therapeutic substituted thiazolidinones, oxazolidinones, and related compounds” (Allergan, Inc., priority 2008, dated 2010) can be followed below.

The test system of this assay is lashes and adjacent hairs of the eyelids. Nature of the assay: Observation of lash and hair growth in glaucoma patients treated with bimatoprost in only one eye. It counts as in vivo, human. An excerpt: In the course of treating patients having glaucoma, treatment may only be appropriate in one eye. […] The lash appearance on the lids of the treated eyes would have appeared quite attractive if it represented a bilateral phenomenon. As a result of its asymmetric nature, the long lashes on one side could be construed as disturbing from a cosmetic standpoint. A systemic examination was preformed as a result of the asymmetric phenomenon. It soon became apparent that this altered appearance was not an isolated finding.
The changes in the lashes were apparent on gross inspection in several patients once attention was focused on the issue. In those with light colored hair and lashes, the differences were only seen easily with the aid of the high magnification and lighting capabilities of the slit lamp biomicroscope. In the course of glaucoma follow-up examination, attention is generally immediately focused on the eye itself. As a result of the high power magnification needed only one eye is seen at a time and the eye is seen at a high enough power that the lashes are not in focus. At these higher powers, any lash asymmetry between the two eyes is not likely to be noticed except by careful systematic comparison of the lashes and adjacent hairs of the eyelids of the two eyes.
Observed parameters leading to the conclusion that more robust hair growth occurred in the treatment area following administration of the prostaglandin analogue were multiple. They included increased length of lashed, increased number of lashes along the normal lash line, increased thickness and luster of lashes, increased auxiliary lash-like terminal hair in transitional areas adjacent to areas of normal lash growth, increased auxiliary lash-like terminal hairs at the medial and lateral canthal area, increased pigmentation of the lashes, increased numbers, increased length, as well as increased luster, and thickness of fine hair on the skin of the adjacent lid, and finally, increased perpendicular angulation of lashes and lash-like terminal hairs.

`CCNC(=O)CCC/C=C\C[C@@H]1[C@@H](/C=C/[C@@H](O)CCc2ccccc2)[C@H](O)C[C@@H]1O` [bimatoprost]: for the setting “a glaucoma patient treated in one eye only”, the “lash appearance in the treated eye versus the non-treated eye” value was “longer, thicker, and fuller in the treated eye than in the non-treated eye”. Further, the “differences in the lashes and adjacent hairs of the treated side” value (all patients taking the drug on a unilateral basis for longer than 6 months) is on record as “Definite differences could be identified to varying degrees”. Further, where the note is “many subjects, length, number, thickness, luster, pigmentation, angulation of lashes”, the “hair growth in treated versus control areas, multiple parameters of hair appearance” value is recorded as “hair growth is stimulated”.
